# Measured values as given in patent US7968725B2, “Pyridinyl modulators of γ-secretase” (Janssen Pharmaceutica N.V., priority 2008, dated 2011).
# Biological target: T1, γ-secretase (Homo sapiens, UniProt P49768)
# T1 construct: endogenous in cells; host or cells: SKNBE2 cells carrying APP 695 wild type
# Test: Screening for γ-secretase-modulating activity in SKNBE2 cells carrying the APP 695-wild type (assay per Citron et al 1997)
# Format: cell-based
# Conditions: @ 1 uM; SKNBE2 cells carrying APP 695-wild type
# Experimental: Screening of the Compounds of the Invention for γ-Secretase-Modulating Activity
# Screening was carried out using SKNBE2 cells carrying the APP 695-wild type, grown in DMEM/NUT-mix F12 (HAM) provided by Gibco (cat no. 31330-38) containing 5% Serum/Fe supplemented with 1% non-essential amino acids.
# Cells were grown to near confluency.
# The screening was performed using the assay as described in Citron et al (1997) Nature Medicine 3: 67.
row,Compound,inhibition at 1 µM
1,"COc1ccc(-c2cc(C(CC(C)C)C(=O)O)cc(-c3ccc(C(F)(F)F)cc3)n2)cc1 (stereo not drawn) [Example 4, 2-[2-(4-Methoxy-phenyl)-6-(4-trifluoromethyl-phenyl)-pyridin-4-yl]-4-methyl-pentanoic acid]",1%
2,"CC(C)CC(C(=O)O)c1cc(-c2ccc(C(F)(F)F)cc2)nc(-c2cccc(-c3ccccc3)c2)c1 (stereo not drawn) [Example 35, 2-[2-Biphenyl-3-yl-6-(4-trifluoromethyl-phenyl)-pyridin-4-yl]-4-methyl-pentanoic acid]",53%
3,"CC(C)CC(C(=O)O)c1cc(-c2ccc(C(F)(F)F)cc2)nc(-c2ccc(S(C)(=O)=O)cc2)c1 (stereo not drawn) [Example 39, 2-[2-(4-Methanesulfonyl-phenyl)-6-(4-trifluoromethyl-phenyl)-pyridin-4-yl]-4-methyl-pentanoic acid]",18%
4,"CC(C)CC(C(=O)O)c1cc(-c2ccc(C(F)(F)F)cc2)nc(-c2ccc(C(F)(F)F)cc2C(F)(F)F)c1 (stereo not drawn) [Example 17, 2-[2-(2,4-Bis-trifluoromethyl-phenyl)-6-(4-trifluoromethyl-phenyl)-pyridin-4-yl]-4-methyl-pentanoic acid]",64%
5,"CC(C)CC(C(=O)O)c1cc(-c2ccc(C(F)(F)F)cc2)nc(-c2cc3ccccc3s2)c1 (stereo not drawn) [Example 29, 2-[2-Benzo[b]thiophen-2-yl-6-(4-trifluoromethyl-phenyl)-pyridin-4-yl]-4-methyl-pentanoic acid]",57%
6,"C=C(C)CC(C(=O)O)c1cc(-c2ccc(C)cc2)nc(-c2ccc(C(F)(F)F)cc2)c1 (stereo not drawn) [Example 32, 4-Methyl-2-[2-p-tolyl-6-(4-trifluoromethyl-phenyl)-pyridin-4-yl]-pent-4-enoic acid]",7%
7,"CC(C)CC(C(=O)O)c1cc(-c2ccc(C(F)(F)F)cc2)nc(N(CCN2CCCCC2)c2ccc(C(F)(F)F)cc2)c1 (stereo not drawn) [Example 45, 4-Methyl-2-[2-[(2-piperidin-1-yl-ethyl)-(4-trifluoromethyl-phenyl)-amino]-6-(4-trifluoromethyl-phenyl)-pyridin-4-yl]-pentanoic acid]",20%
8,"CC(C)CC(C(=O)O)c1cc(-c2ccc(Oc3ccccc3)cc2)nc(-c2ccc(C(F)(F)F)cc2)c1 (stereo not drawn) [Example 37, 4-Methyl-2-[2-(4-phenoxy-phenyl)-6-(4-trifluoromethyl-phenyl)-pyridin-4-yl]-pentanoic acid]",73%
9,"C=C(C)CC(C(=O)O)c1cc(-c2ccc(C(F)(F)F)cc2)nc(-c2cc3ccccc3s2)c1 (stereo not drawn) [Example 28, 2-[2-Benzo[b]thiophen-2-yl-6-(4-trifluoromethyl-phenyl)-pyridin-4-yl]-4-methyl-pent-4-enoic acid]",0%
10,"CC(C)CC(C(=O)O)c1cc(-c2ccc(-c3ccccc3)cc2)nc(-c2ccc(C(F)(F)F)cc2)c1 (stereo not drawn) [Example 13, 2-[2-Biphenyl-4-yl-6-(4-trifluoromethyl-phenyl)-pyridin-4-yl]-4-methyl-pentanoic acid]",49%
11,"C=C(C)CC(C(=O)O)c1cc(-c2ccc(C(F)(F)F)cc2)nc(-c2cccc(F)c2F)c1 (stereo not drawn) [Example 20, 2-[2-(2,3-Difluoro-phenyl)-6-(4-trifluoromethyl-phenyl)-pyridin-4-yl]-4-methyl-pent-4-enoic acid]",9%
12,"CC(C)CCN(c1ccc(C(F)(F)F)cc1)c1cc(CC(=O)O)cc(-c2ccc(C(F)(F)F)cc2)n1 [Example 42, [2-[(3-Methyl-butyl)-(4-trifluoromethyl-phenyl)-amino]-6-(4-trifluoromethyl-phenyl)-pyridin-4-yl]-acetic acid]",36%

# The next lines start with the values.
row,inhibition at 1 µM,Compound
1,32%,"CC(C)CC(C(=O)O)c1cc(-c2ccc(C(F)(F)F)cc2)nc(-c2cccc(C(F)(F)F)c2)c1 (stereo not drawn) [Example 12, 4-Methyl-2-[2-(3-trifluoromethyl-phenyl)-6-(4-trifluoromethyl-phenyl)-pyridin-4-yl]-pentanoic acid]"
2,2%,"CC(C)CC(C(=O)O)c1cc(-c2ccc(C(F)(F)F)cc2)nc(-c2c(F)cccc2F)c1 (stereo not drawn) [Example 26, 2-[2-(2,6-Difluoro-phenyl)-6-(4-trifluoromethyl-phenyl)-pyridin-4-yl]-4-methyl-pentanoic acid]"
3,5%,"CC(C)CC(C(=O)O)c1cc(-c2ccc(C(F)(F)F)cc2)nc(-c2ccc(F)cc2F)c1 (stereo not drawn) [Example 22, 2-[2-(2,4-Difluoro-phenyl)-6-(4-trifluoromethyl-phenyl)-pyridin-4-yl]-4-methyl-pentanoic acid]"
4,12%,"CC(C)CC(C(=O)O)c1cc(-c2ccc(C(F)(F)F)cc2)nc(-c2cccc(F)c2F)c1 (stereo not drawn) [Example 21, 2-[2-(2,3-Difluoro-phenyl)-6-(4-trifluoromethyl-phenyl)-pyridin-4-yl]-4-methyl-pentanoic acid]"

# Same assay, conditions: SKNBE2 cells carrying APP 695-wild type
row,Compound,EC50
1,"CC(C)CCN(c1ccc(C(C)(C)C)cc1)c1cc(CC(=O)O)cc(-c2ccc(C(F)(F)F)cc2)n1 [Example 47, [2-[(4-tert-Butyl-phenyl)-(3-methyl-butyl)-amino]-6-(4-trifluoromethyl-phenyl)-pyridin-4-yl]-acetic acid]",1290 nM
2,"CC(C)CC(C(=O)O)c1cc(-c2ccc(C(F)(F)F)cc2)nc(-c2cc(F)cc(C(F)(F)F)c2)c1 (stereo not drawn) [Example 8, 2-[2-(3-Fluoro-5-trifluoromethyl-phenyl)-6-(4-trifluoromethyl-phenyl)-pyridin-4-yl]-4-methyl-pentanoic acid]",120 nM
3,"CC(C)CC(C(=O)O)c1cc(-c2ccc(C(F)(F)F)cc2)nc(-c2cc(C(F)(F)F)cc(C(F)(F)F)c2)c1 (stereo not drawn) [Example 6, 2-[2-(3,5-Bis-trifluoromethyl-phenyl)-6-(4-trifluoromethyl-phenyl)-pyridin-4-yl]-4-methyl-pentanoic acid]",270 nM
4,"CC(C)CC(C(=O)O)c1cc(-c2ccc(C(F)(F)F)cc2)nc(-c2cc(F)cc(F)c2)c1 (stereo not drawn) [Example 10, 2-[2-(3,5-Difluoro-phenyl)-6-(4-trifluoromethyl-phenyl)-pyridin-4-yl]-4-methyl-pentanoic acid]",200 nM
5,"CC(C)CC(C(=O)O)c1cc(-c2ccc(C(F)(F)F)cc2)nc(-c2ccc(C(F)(F)F)cc2)c1 (stereo not drawn) [Example 1, 2-[2,6-Bis-(4-trifluoromethyl-phenyl)-pyridin-4-yl]-4-methyl-pentanoic acid]",260 nM
